The values that follow come from article PMC5104769, “Concentration-Dependent Dual Mode of Zn Action at Serotonin 5-HT1A Receptors: In Vitro and In Vivo Studies” (Molecular neurobiology, 2015).

One assay deals with Sprague Dawley rats. Description: 5-HT behavioural syndrome (flat body posture, forepaw treading) in rats. In kind it is in vivo, rat. Particulars: for behavioural score FBP (A) VEH / behavioural score FT (A) VEH: max score 10. How it is done: (§1) The experiments were performed on male Albino Swiss mice (23–25 g) and Sprague Dawley rats (200–250 g) from Charles River, Germany as well as TPH2-Cre-ER^T2 x flx-5-HT1A-flx-YFP mice from Jackson Labs, Bangor ME and the Hen lab, respectively. The animals were kept under standard laboratory conditions with respect to lighting (light phase 7:00–19:00) and temperature (19–21 °C). Food and water were freely available. Each experimental group consisted of eight to ten animals. All of the animals were experimentally naive and were used only once in each test. The experiments were performed during the light period (9:00–14:00 h). All of the procedures were conducted according to the guidelines of the National Institutes of Health Animal Care and Use Committee and were approved by the Ethics Committees of the Institute of Pharmacology, Polish Academy of Sciences in Krakow and the Animal Care Committee, University of Ottawa.
Zn (all doses refer to mg Zn/kg) was given as either Zn hydroaspartate (Farmapol, Poland) or Zn chloride (Sigma-Aldrich) and was dissolved in 0.9 % NaCl and administered intraperitoneally (i.p.). 8-OH-DPAT and WAY-100635 were dissolved in aqua pro-injection and were administered subcutaneously (s.c.). Controls were treated with the appropriate diluent, which was indicated as VEH on the graphs and in the tables.
The experiments were conducted according to previously published procedure, with a modification to the ranked intensity scale. Briefly, the rats were individually placed in cages (30×25×25 cm) 5 min before tested compounds were injected. Forepaw treading (FT) and flat body posture (FBP) were scored using a ranked intensity scale, where 0=absent, 1=equivocal and 2=present. The Zn (2, 5, 7.5 and 11.5 mg Zn/kg, given as a Zn hydroaspartate)-induced behavioural syndrome was scored for each animal 3, 6, 9, 12 and 15 min after the Zn treatment. Each observation session lasted for 45 s. The maximum score, which was summed over 5 observation periods, was 10 for each symptom/rat. The effect of Zn on the behavioural syndrome induced by 8-OH-DPAT (5 mg/kg) was scored using the same scale. Zn was administered 60 min before 8-OH-DPAT, and the animals were scored 3, 6, 9, 12 and 15 min after the 8-OH-DPAT treatment.

A further assay has as its system β2 adrenergic receptors. More on the design: method as in PMID 11752207. Conditions: cited from earlier work.
The next assay is described as follows: Body temperature in rats. In kind it is in vivo, rat. Particulars: Zn: 30 min at 7.5 and 11.5 mg/kg, 60 min at 5, 7.5 and 11.5 mg/kg. As for the experimental part: as §1, with “Ottawa. […]” for “Ottawa.”
The effects of Zn (2, 5, 7.5 and 11.5 mg Zn/kg for rats and 2 and 5 mg/kg for mice, given as a Zn hydroaspartate), 8-OH-DPAT (5 mg/kg) and WAY-100635 (0.1mg/kg) on rectal body temperature were recorded 30 and 60 min after their acute administration. The results were expressed as a change in body temperature with respect to the basal body temperature, which was measured at the beginning of the experiments.

Setting [1] is: Zn 2 mg/kg 60 min before 8-OH-DPAT 5 mg/kg.
[2] abbreviates: Zn 5 mg/kg 60 min before 8-OH-DPAT 5 mg/kg.
Where [3] appears, read: Zn 7.5 mg/kg 60 min before 8-OH-DPAT 5 mg/kg.
Where [4] appears, read: Zn 11.5 mg/kg 60 min before 8-OH-DPAT 5 mg/kg.

The structures appear in SMILES notation.

For the compound `[Zn+2]` [Zn, Zinc], the “effect on 8-OH-DPAT-induced FBP and FT (in words)” value in the assay on Sprague Dawley rats (FBP at 11.5 mg/kg, FT at 7.5 and 11.5 mg/kg Zn) was “blocked the 8-OH-DPAT-induced FBP and FT”. Besides, the “behavioural score FBP (B) 8-OH-DPAT” value stood at 7.7±0.3 with Sprague Dawley rats (setting [1]), 7.5±0.8 with Sprague Dawley rats (setting [2]), 7.0±0.3 in the assay on Sprague Dawley rats (setting [3]) and 3.4±0.6 in the assay on Sprague Dawley rats (setting [4]). The “behavioural score FT (B) 8-OH-DPAT” value is recorded as 7.1±0.6 in the assay on Sprague Dawley rats (setting [1]), 7.5±0.5 in the assay on Sprague Dawley rats (setting [2]), 5.0±0.6 with Sprague Dawley rats (setting [3]) and 0.4±0.2 in the assay with Sprague Dawley rats (setting [4]). The “behavioural score FBP (A) VEH” value with Sprague Dawley rats (Zn 2 mg/kg alone) amounted to 0.2±0.2; in the assay with Sprague Dawley rats (Zn 5 mg/kg alone), 0.3±0.3; in the assay on Sprague Dawley rats (Zn 7.5 mg/kg alone), 0.5±0.5; in the assay with Sprague Dawley rats (Zn 11.5 mg/kg alone), 0.5±0.2. For the same compound, the “behavioural score FT (A) VEH” value in the assay with Sprague Dawley rats (Zn 2 mg/kg alone) came out at 0.3±0.2; with Sprague Dawley rats (Zn 5 mg/kg alone) it was 0.2±0.2; in the assay on Sprague Dawley rats (Zn 7.5 mg/kg alone), 0.2±0.2; in the assay on Sprague Dawley rats (Zn 11.5 mg/kg alone), 0.2±0.2. Further, the “induction of FBP or FT (in words)” value in the assay with Sprague Dawley rats (Zn 2, 5, 7.5 and 11.5 mg/kg alone) is recorded as “did not induce FBP or FT”. Further, in the assay with β2 adrenergic receptors (5 μM of Zn), the “effect on agonist affinity” value is listed as “enhanced agonist affinity”. Further, in the assay on β2 adrenergic receptors (500 μM of Zn), the “effect on antagonist binding” value is listed as “inhibited antagonist binding”. Besides, the “change in body temperature” value in “Body temperature in rats” was “significantly decreased the body temperature”.
